Assays:
[1] = S9 stability assay, human liver S9 fraction; assay type: in vitro ADME; conditions: for CLint: known MEK compounds; for microsomal CLint at 1 μM / half-life at 1 μM: pH 7.4, Table 1, human liver S9 fraction; for microsomal CLint at 1 μM: read-out: CLint; for half-life at 1 μM: read-out: Liver S9 t1/2
Method: Compounds were assessed for metabolic stability in human skin by assessing their rate of disappearance from human S9 skin fraction. Similarly, compounds were assessed for metabolic stability in human liver by assessing their rate of disappearance from human S9 liver fraction. The protocol below can be used to assess the difference between skin and hepatic metabolism.
The assay was carried out in 96-well microtiter plates at 37° C. Reaction mixtures (25 μL) contained a final concentration of 1 μM test compound, 2 mg/mL liver or skin S9 protein, and 1 mM NADPH in buffer (100 mM potassium phosphate, pH 7.4 buffer with 1 mM EDTA, 3 mM MgCl2). At each of the time points (0, 15, 30, and 60 minutes), 150 μL of quench solution (100% acetonitrile with 0.1% formic acid) with internal standard was transferred to each well. Besides the zero minute controls, mixtures containing the same components except the NADPH were also prepared as the negative control. Verapamil or testosterone was included as a positive control to verify assay performance. Plates were sealed and centrifuged at 4° C. for 15 minutes at 4000 rpm. The supernatant was transferred to fresh plates for LC/MS/MS analysis.
All samples were analyzed on LC/MS/MS using an AB Sciex API 4000 instrument, coupled to a Shimadzu LC-20AD LC Pump system. Analytical samples were separated using a Waters Atlantis T3 dC18 reverse phase HPLC column (20 mm×2.1 mm) at a flow rate of 0.5 mL/min. The mobile phase consisted of 0.1% formic acid in water (solvent A) and 0.1% formic acid in 100% acetonitrile (solvent B).
The extent of metabolism was calculated as the disappearance of the test compound, compared to the 0-min control reaction incubations. Initial rates were calculated for the compound concentration and used to determine t1/2 values and subsequently, the intrinsic clearance, CLint=(0.693) (1/t1/2 (min)) (mL incubation/mg of S9 protein).

[2] = biological target: T1, MEK1 (Homo sapiens, UniProt Q02750); experiment: MEK inhibition assay, Biological Example 1a (33P-ATP, P81 filter-binding); conditions: read-out: Assay 1: biochemical MEK IC50
T1 construct: N-terminal His-tagged recombinant human full length protein; His (N); purchased Invitrogen PV3303; host or cells: insect cells
Method: MEK1 inhibitory activity of compounds were tested using the following procedure. […] Activated in vitro by RAF1. MW=49.2 kDa, GenBank Accession No. NP_002746. • Substrate: 5 μM ERK2 (K52R), • Kinase-dead mutant, (GenBank Accession No. NM_0011949), aa2-358 with N-terminal His6 tag, MW=43.63 kDa, expressed in E. coli.
The substrate was prepared in freshly prepared Reaction Buffer. The kinase was delivered into the substrate solution and gently mixed. Test compounds were delivered in 100% DMSO into the kinase reaction mixture by Acoustic technology (Echo550; nanoliter range), and incubated for 20 min at room temperature. ^33P-ATP was delivered into the reaction mixture to initiate the reaction. The reaction mixture was incubated for 2 hours at room temperature. Kinase activity was detected by P81 filter-binding method.

[3] = test system: C57BL/6J mice; experiment: In vivo mouse model, skin and systemic toxicity of topical application (survival)
Text: This study was designed to assess the skin toxicity and gross systemic toxicity of twice daily topical administration of a compound disclosed herein, as well as to evaluate the effect of metabolic lability on systemic toxicity.
Study Objective: The primary objective of this study was to characterize the skin and systemic toxicity of twice daily topical application of a compound disclosed herein, applied for 25 days in mice. Secondary objectives included determination of the 25-day skin and plasma compound levels of formulations containing three dosages of compound of Ex. 2 after application to 10% body surface area (BSA) murine skin; assessment of gross systemic toxicity from the application of compound of Ex. 2 after twice daily application to 10% BSA murine skin for 25 days; and determination of the correlation of skin and plasma compound levels with associated toxicity.
Mice: 8 week old male C57BL/6J mice (Jackson Laboratories) were shaved prior to start of study and weekly.
Compound application: Compounds were dissolved in a 50% DMSO/50% propyelene glycol vehicle. 0.125 mL of the following compounds were applied to the shaved dorsal back of mice (10% BSA) twice daily for 5 days per week for a total of 24 days. The second dose was applied 8 hours after first morning dose. All mice were shaved once per week at application site.
Oral trametinib was dissolved in 0.5% hydroxypropyl methylcellulose (Sigma-Aldrich) and 0.2% Tween-80 (Sigma-Aldrich) and administered by oral gavage (0.2 mL bolus or 10 mg/kg) once daily 5 days per week. These mice were also shaved weekly.
Weekly (Weeks 0-4): body weight measurements weekly, starting week 0 until experiment end; photographs of dorsal back and face of each mouse weekly, starting week 0 until experiment end; skin; and gross stool analysis assessed weekly for heme color, starting week 0 until experiment end.
The study planned for the mice to be sacrificed at Day 25.
Kaplan Meier curves were analyzed to determine progression to skin toxicity for each arm as compared with vehicle. T-test were used to compare compound levels at each dosage. Ki-67+ cells and p-ERK expression were also assessed on a cellular level via immunostaining. Western blots informed semi-quantitative changes in p-ERK expression.

[4] = Compound levels in neck/back skin (LCMS), in vivo mouse model; design: species or system mice; conditions: topical 1% trametinib
Method: (§1) Week 4 (Experiment end): Skin and blood were collected right before the last morning dose (N=3), 1 hour (N=3 mice), and 2 hours (N=3 mice) after final application; Blood draw: Plasma compound levels (LCMS); Skin biopsy: formalin fixed for histology and p-ERK staining, flash frozen for Western analysis and skin compound levels (LCMS)
Skin biopsy and GI tract sampling: Skin was wiped down with 100% ethanol and a 1 cm^2 biopsy was obtained from compound application site each mouse at the 25 day end of experiment (except as noted below). The skin was biopsied prior to final dose from 3 mice, 1 hour after last compound application from 3 mice, 2 hours after last compound application from 3 mice. Half of the specimen were immediately flash frozen for LCMS analysis and Western Blot Analysis. Half of the specimen was fixed for 24 hours in 10% formalin and then transferred to ethanol for immunohistochemistry. Gastrointestinal tract was also formalin fixed overnight then transferred to 70% ETOH for storage.
(§2) Compound level analysis: Liquid chromatography with mass spectrometry method (LCMS) was used to detect compound levels in the skin and plasma. Tissues were preprocessed prior to LCMS as follows. Tissues were minced and incubated with collagenase and then finally homogenized using the stainless steel beads prior to LCMS analysis. Calibration curves and a QC test were run with each assay.

[5] = Plasma LCMS compound levels, in vivo mouse model; design: species or system mice; conditions: for concentration at 1 h: male, C57BL/6J, mouse, plasma; for Plasma LCMS Compound Levels: pre-dose (16 h)
Method: These mice were also shaved weekly.
as §1, §2

[6] = test system: P-gp (human MDR1); experiment: MDCK-MDR1 bi-directional transport assay; conditions: dog; for Papp A→B at 1 h, 5 μM / Papp B→A at 1 h, 5 μM: MDCK-MDR1, Papp
Method: (§3) MDCK-MDR1 is a stable-transfected cell line originating from MDCK cells, with over-expression of human MDR1 gene. The cell line is widely used for the identification and characterization of P-gp substrates and inhibitors.
(§4) MDCK-MDR1 cells were plated into 96-well Millipore Millicell-96 plates at 7,500 cells/75 μL/well and incubated for three days at 37° C. with 5% CO2. Cells were washed with Hank's Balanced Salt Solution (HBSS) with 5 mM HEPES for 30 minutes before starting the experiment. Test compound solutions were prepared by diluting DMSO stock into HBSS buffer, resulting in a final DMSO concentration of 0.1%. Prior to the experiment, cell monolayer integrity was verified by […] electrical resistance (TEER). Transport experiment was initiated by adding test compounds to the apical (75 μL) or basal (250 μL) side. Transport plates were incubated at 37° C. in a humidified incubator with 5% CO2. Samples were taken from the donor and acceptor compartments after one hour and analyzed by liquid chromatography with tandem mass spectrometry (LC/MS/MS).
(§5) Digoxin was used as reference control.
(§6) Apparent permeability (Papp) values were calculated using the following equation: Papp=(dQ/dt)/A/Co; where dQ/dt is the initial rate of amount of test compound transported across cell monolayer, A is the surface area of the filter membrane, and Co is the initial concentration of the test compound, calculated for each direction using a 4-point calibration curve by LC/MS/MS.
(§7) Net flux ratio between the two directional transports was calculated by the following equation: Ratio=Papp, B-A/Papp, A-B; where Papp, B-A and Papp, A-B represent the apparent permeability of test compound from the basal-to-apical and apical-to-basal side of the cellular monolayer, respectively.
(§8) Recovery was calculated based on the compound concentration at the end of the experiment, compared to that at the beginning of the experiment, adjusted for volumes.
(§9) A net flux ratio greater than two was considered a positive result for substrate determination. […] If the addition of a known P-gp inhibitor to the experiment reduces the net flux ratio by a significant amount (more than 50% reduction or reduces the ratio to close to unity), it is likely that the compound tested is a P-gp substrate.

[7] = test system: MDCK-MDR1 cells; experiment: MDCK-MDR1 bi-directional transport assay; conditions: 5 μM
Method: as §3, §4, §5, §6, §7, §8, §9

T1 sequence (Q02750 whole entry): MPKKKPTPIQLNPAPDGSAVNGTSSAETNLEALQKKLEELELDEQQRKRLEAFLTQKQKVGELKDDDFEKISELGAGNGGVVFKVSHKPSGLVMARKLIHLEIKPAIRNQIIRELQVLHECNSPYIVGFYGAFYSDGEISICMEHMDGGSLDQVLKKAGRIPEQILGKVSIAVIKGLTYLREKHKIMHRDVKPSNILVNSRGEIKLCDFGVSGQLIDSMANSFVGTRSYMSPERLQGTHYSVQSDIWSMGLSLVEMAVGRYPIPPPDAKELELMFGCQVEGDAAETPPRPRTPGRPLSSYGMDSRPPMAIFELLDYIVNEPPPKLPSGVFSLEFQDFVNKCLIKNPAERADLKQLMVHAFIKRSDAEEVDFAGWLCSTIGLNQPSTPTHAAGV

Compound: O=C(NC[C@@H](O)CO)c1ccncc1Nc1ccc(I)cc1F [Example C7]
- CLint [1]: 1.29 μL/min/mg protein
- microsomal CLint at 1 μM [1]: 1.29 µL/min/mg
- half-life at 1 μM [1]: 4.47 h

Compound: C#Cc1ccc(Nc2c(C(=O)NOCCO)c3cccnc3n2C)c(F)c1 [Example 3, 2-((4-Ethynyl-2-fluorophenyl)amino)—N-(2-hydroxyethoxy)-1-methyl-1H-pyrrolo[2,3-b]pyridine-3-carboxamide]
- IC50 [2]: 2450 nM

Compound: O=C(NOCCO)c1ccc2cncn2c1Nc1ccc(I)cc1F [Example C5]
- CLint [1]: 6.98 μL/min/mg protein
- microsomal CLint at 1 μM [1]: 6.98 µL/min/mg
- half-life at 1 μM [1]: 0.833 h

Compound: CC(=O)Nc1cccc(-n2c(=O)n(C3CC3)c(=O)c3c(Nc4ccc(I)cc4F)n(C)c(=O)c(C)c32)c1 [trametinib, reference compound]
- Survival Rates ([3]; oral trametinib 0.75 mg/kg daily gavage 5x/week, Day 0): 100%
- Survival Rates ([3]; oral trametinib 0.75 mg/kg daily gavage 5x/week, Day 3): 90%
- Survival Rates ([3]; oral trametinib 0.75 mg/kg daily gavage 5x/week, Day 6): 70%
- Survival Rates ([3]; oral trametinib 0.75 mg/kg daily gavage 5x/week, Day 9): 70%
- Survival Rates ([3]; oral trametinib 0.75 mg/kg daily gavage 5x/week, Day 12): 70%
- Survival Rates ([3]; oral trametinib 0.75 mg/kg daily gavage 5x/week, Day 15): 70%
- Survival Rates ([3]; oral trametinib 0.75 mg/kg daily gavage 5x/week, Day 18): 70%
- Survival Rates ([3]; oral trametinib 0.75 mg/kg daily gavage 5x/week, Day 21): 70%
- Survival Rates ([3]; oral trametinib 0.75 mg/kg daily gavage 5x/week, Day 24): 70%
- Survival Rates ([3]; oral trametinib 0.75 mg/kg daily gavage 5x/week, Day 25): 70%
- Survival Rates ([3]; topical Trametinib 1%, twice daily 5 days per week, 10% BSA, Day 0): 100%
- Survival Rates ([3]; topical Trametinib 1%, twice daily 5 days per week, 10% BSA, Day 3): 100%
- Survival Rates ([3]; topical Trametinib 1%, twice daily 5 days per week, 10% BSA, Day 6): 100%
- Survival Rates ([3]; topical Trametinib 1%, twice daily 5 days per week, 10% BSA, Day 9): 100%
- Survival Rates ([3]; topical Trametinib 1%, twice daily 5 days per week, 10% BSA, Day 12): 100%
- Survival Rates ([3]; topical Trametinib 1%, twice daily 5 days per week, 10% BSA, Day 15): 80%
- Survival Rates ([3]; topical Trametinib 1%, twice daily 5 days per week, 10% BSA, Day 18): 0%
- Survival Rates ([3]; topical Trametinib 1%, twice daily 5 days per week, 10% BSA, Day 21): 0%
- Survival Rates ([3]; topical Trametinib 1%, twice daily 5 days per week, 10% BSA, Day 24): 0%
- Survival Rates ([3]; topical Trametinib 1%, twice daily 5 days per week, 10% BSA, Day 25): 0%
- mortality / weight loss ([3]; topically-applied 1%, Day 18): found dead, or had to be sacrificed due to unacceptable weight loss
- Compound Levels in Neck/Back Skin ([4]; 1 h): 3626.06 µg/mL
- Compound Levels in Neck/Back Skin ([4]; pre-dose (16 h)): 4520.39 µg/mL
- concentration at 1 h ([5]; 10 mg/kg, oral trametinib): 0.0751 µg/mL
- concentration at 1 h ([5]; topical 1% trametinib): 2.81 µg/mL
- Plasma LCMS Compound Levels ([5]; oral trametinib): 39.93 ng/mL
- Plasma LCMS Compound Levels ([5]; topical 1% trametinib): 1339.33 ng/mL

Compound: CC(=O)Nc1cccc(-n2c(=O)n(C3CC3)c(=O)c3c(Nc4ccc(I)cc4F)n(C)c(=O)c(C)c32)c1 [Example C6]
- CLint [1]: 0.86 μL/min/mg protein
- microsomal CLint at 1 μM [1]: 0.86 µL/min/mg
- half-life at 1 μM [1]: 6.7 h

Compound: O=C(NOC[C@H](O)CO)c1ccc(F)c(F)c1Nc1ccc(I)cc1F [Example C2]
- CLint [1]: 1.02 μL/min/mg protein
- microsomal CLint at 1 μM [1]: 1.02 µL/min/mg
- half-life at 1 μM [1]: 5.67 h

Compound: Cn1cnc2c(F)c(Nc3ccc(Br)cc3Cl)c(C(=O)NOCCO)cc21 [Example C4]
- CLint [1]: 2.50 μL/min/mg protein
- microsomal CLint at 1 μM [1]: 2.5 µL/min/mg
- half-life at 1 μM [1]: 2.3 h

Compound: O=C(NOCC1CC1)c1ccc(F)c(F)c1Nc1ccc(I)cc1Cl [Example C1]
- CLint [1]: 10.37 μL/min/mg protein
- microsomal CLint at 1 μM [1]: 10.4 µL/min/mg
- half-life at 1 μM [1]: 0.55 h

Compound: Cn1cnc2c(F)c(Nc3ccc(Br)cc3F)c(C(=O)NOCCO)cc21 [Example C3]
- CLint [1]: 1.25 μL/min/mg protein
- microsomal CLint at 1 μM [1]: 1.25 µL/min/mg
- half-life at 1 μM [1]: 4.62 h

Compound: C[C@H]1O[C@@H](O[C@H]2[C@@H](O)C[C@H](O[C@H]3[C@@H](O)C[C@H](O[C@H]4CC[C@@]5(C)[C@H](CC[C@@H]6[C@@H]5C[C@@H](O)[C@]5(C)[C@@H](C7=CC(=O)OC7)CC[C@]65O)C4)O[C@@H]3C)O[C@@H]2C)C[C@H](O)[C@@H]1O [Digoxin]
- efflux ratio at 1 h, 5 μM ([6]; MDCK-MDR1): 9.7
- Papp A→B at 1 h, 5 μM ([6]; A-B Mean): 1.5 ×10⁻⁶ cm/s
- Papp A→B at 1 h, 5 μM ([6]; A-B Value, single values): 1.3 ×10⁻⁶ cm/s
- Papp B→A at 1 h, 5 μM ([6]; B-A Mean): 14.3 ×10⁻⁶ cm/s
- Papp B→A at 1 h, 5 μM ([6]; B-A Value, single values): 14.6 ×10⁻⁶ cm/s
- Recover Rate [7]: 96%
- Papp, A-B Value ([7]; single values): 1.6 ×10⁻⁶ cm/s
- Papp, B-A Value ([7]; single values): 14.1 ×10⁻⁶ cm/s
